Reference: PubChem BioAssay (NCI)
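Test compounds were applied to cells in 96-well plates for 48 hours at 5 doses. Abbreviation: GI50, concentration required for 50% inhibition of growth. TGI is the concentration that stops growth completely.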

What was measured:
Experiment in all cases: NCI-60 cell line screen, 48 h
[1] = tested on: SF-539 CNS
[2] = tested on: MDA-MB-231 breast
[3] = tested on: DU-145 prostate
[4] = tested on: HCC-2998 colon
[5] = tested on: NCI-H226 lung
[6] = tested on: DMS 114 small cell lung
[7] = tested on: KM20L2 colon
[8] = tested on: SN12C renal
[9] = tested on: UACC-257 melanoma
[10] = tested on: KM12 colon
[11] = tested on: XF 498 CNS
[12] = tested on: M19-MEL melanoma
[13] = tested on: U251 CNS
[14] = tested on: SK-MEL-5 melanoma
[15] = tested on: LXFL 529 NSCLC

COc1cnc2c(c1)C(=O)c1c-2n(CCCN2CCOCC2)c(=O)c2cc(Cl)ccc12
GI50 [1]: 0.23 µM
TGI [1]: 0.65 µM
GI50 [2]: > 100 µM
TGI [2]: > 100 µM
GI50 [3]: 0.41 µM
TGI [3]: > 100 µM
GI50 [4]: > 100 µM
TGI [4]: > 100 µM
GI50 [5]: 0.396 µM
TGI [5]: > 100 µM

COc1cccc(N2C(Cl)C(=O)C2c2c[nH]c3ccccc23)c1 (stereo not given)
TGI [6]: > 100 µM
TGI [7]: > 100 µM
TGI [8]: > 100 µM
TGI [9]: > 100 µM
TGI [10]: > 100 µM
TGI [11]: > 100 µM
TGI [12]: > 100 µM
TGI [13]: > 100 µM
TGI [14]: > 100 µM
TGI [15]: > 100 µM
